Measured values reported in ChEMBL document CHEMBL5634117 (Eur J Med Chem, 2023).
Calls of active or inactive are those of the source. No cut-off for these calls is given here.

Tests used:
K562 [1] = assay: Induction of autophagy in human K562 cells assessed as increase in beclin-1 level at 2.56 uM measured after 24 hrs by Western blotting analysis; assay type: functional, cell-based
K562 [2] = assay: Induction of apoptosis in human K562 cells assessed as late apoptotic cells at 1.28 uM incubated for 24 hrs by annexinV and propidium iodide staining based flow cytometry analysis (reference value: 0.82%); assay type: functional
K562 [3] = assay: Induction of apoptosis in human K562 cells assessed as early apoptotic cells at 1.28 uM incubated for 24 hrs by annexinV and propidium iodide staining based flow cytometry analysis (reference value: 1.17%); assay type: functional
K562 [4] = assay: Induction of cell cycle arrest in human K562 cells assessed as accumulation of cells at SubG1 phase at 1.28 uM measured after 24 hrs by PI staining based flow cytometry analysis (reference value: 2.21%); assay type: functional
[5] = Cytotoxicity against African green monkey Vero cells assessed as decrease in number of viable cells at 30 uM measured after 48 hrs by SRB assay relative to control; assay type: toxicity, cell-based; conditions: chlorocebus sabaeus
[6] = Cytotoxicity against African green monkey Vero cells assessed as decrease in number of viable cells at 100 uM measured after 48 hrs by SRB assay relative to control; assay type: toxicity, cell-based; conditions: chlorocebus sabaeus
K562 [7] = assay: Induction of apoptosis in human K562 cells assessed as late apoptotic cells at 2.56 uM incubated for 24 hrs by annexinV and propidium iodide staining based flow cytometry analysis (reference value: 0.82%); assay type: functional
K562 [8] = assay: Induction of cell cycle arrest in human K562 cells assessed as accumulation of cells at G0/G1 phase at 1.28 uM measured after 24 hrs by PI staining based flow cytometry analysis (reference value: 46.72%); assay type: functional
K562 [9] = assay: Induction of cell cycle arrest in human K562 cells assessed as accumulation of cells at S phase at 0.64 uM measured after 24 hrs by PI staining based flow cytometry analysis (reference value: 24.75%); assay type: functional
K562 [10] = assay: Induction of cell cycle arrest in human K562 cells assessed as accumulation of cells at G0/G1 phase at 2.56 uM measured after 24 hrs by PI staining based flow cytometry analysis (reference value: 46.72%); assay type: functional
K562 [11] = assay: Induction of cell cycle arrest in human K562 cells assessed as accumulation of cells at SubG1 phase at 2.56 uM measured after 24 hrs by PI staining based flow cytometry analysis (reference value: 2.21%); assay type: functional
K562 [12] = assay: Induction of cell cycle arrest in human K562 cells assessed as accumulation of cells at G2/M phase at 2.56 uM measured after 24 hrs by PI staining based flow cytometry analysis (reference value: 25.62%); assay type: functional
K562 [13] = assay: Induction of cell cycle arrest in human K562 cells assessed as accumulation of cells at S phase at 2.56 uM measured after 24 hrs by PI staining based flow cytometry analysis (reference value: 24.75%); assay type: functional
K562 [14] = assay: Induction of apoptosis in human K562 cells assessed as early apoptotic cells at 2.56 uM incubated for 24 hrs by annexinV and propidium iodide staining based flow cytometry analysis (reference value: 1.17%); assay type: functional
K562 [15] = assay: Induction of apoptosis in human K562 cells assessed as late apoptotic cells at 0.64 uM incubated for 24 hrs by annexinV and propidium iodide staining based flow cytometry analysis (reference value: 0.82%); assay type: functional
K562 [16] = assay: Induction of autophagy in human K562 cells assessed as increase in beclin-1 level at 1.28 uM measured after 24 hrs by Western blotting analysis; assay type: functional, cell-based
K562 [17] = assay: Induction of cell cycle arrest in human K562 cells assessed as accumulation of cells at G2/M phase at 0.64 uM measured after 24 hrs by PI staining based flow cytometry analysis (reference value: 29.09%); assay type: functional
K562 [18] = assay: Induction of apoptosis in human K562 cells assessed as early apoptotic cells at 5 uM incubated for 24 hrs by annexinV and propidium iodide staining based flow cytometry analysis (reference value: 0.42%); assay type: functional
K562 [19] = assay: Induction of apoptosis in human K562 cells assessed as late apoptotic cells at 2.5 uM incubated for 24 hrs by annexinV and propidium iodide staining based flow cytometry analysis (reference value: 1.34%); assay type: functional
K562 [20] = assay: Induction of cell cycle arrest in human K562 cells assessed as accumulation of cells at S phase at 1.28 uM measured after 24 hrs by PI staining based flow cytometry analysis (reference value: 21.74%); assay type: functional
K562 [21] = assay: Induction of cell cycle arrest in human K562 cells assessed as accumulation of cells at S phase at 0.64 uM measured after 24 hrs by PI staining based flow cytometry analysis (reference value: 21.74%); assay type: functional
K562 [22] = assay: Induction of autophagy in human K562 cells assessed as increase in beclin-1 level at 1.28 to 2.56 uM measured after 24 hrs by Western blotting analysis; assay type: functional, cell-based; conditions: dose 1.28-2.56 µM
K562 [23] = assay: Induction of cell cycle arrest in human K562 cells assessed as accumulation of cells at G0/G1 phase at 1.25 uM measured after 24 hrs by PI staining based flow cytometry analysis (reference value: 46.67%); assay type: functional
K562 [24] = assay: Induction of cell cycle arrest in human K562 cells assessed as accumulation of cells at G2/M phase at 2.56 uM measured after 24 hrs by PI staining based flow cytometry analysis (reference value: 29.09%); assay type: functional
K562 [25] = assay: Induction of cell cycle arrest in human K562 cells assessed as accumulation of cells at SubG1 phase at 1.25 uM measured after 24 hrs by PI staining based flow cytometry analysis (reference value: 3.43%); assay type: functional
K562 [26] = assay: Induction of autophagy in human K562 cells assessed as increase in beclin-1 level at 2.5 to 5 uM measured after 24 hrs by Western blotting analysis; assay type: functional, cell-based; conditions: dose 2.5-5 µM
K562 [27] = assay: Induction of cell cycle arrest in human K562 cells assessed as accumulation of cells at G0/G1 phase at 2.56 uM measured after 24 hrs by PI staining based flow cytometry analysis (reference value: 46.71%); assay type: functional
K562 [28] = assay: Induction of cell cycle arrest in human K562 cells assessed as accumulation of cells at G0/G1 phase at 1.28 uM measured after 24 hrs by PI staining based flow cytometry analysis (reference value: 46.71%); assay type: functional
K562 [29] = assay: Induction of cell cycle arrest in human K562 cells assessed as accumulation of cells at S phase at 5 uM measured after 24 hrs by PI staining based flow cytometry analysis (reference value: 20.42%); assay type: functional
K562 [30] = assay: Induction of apoptosis in human K562 cells assessed as early apoptotic cells at 2.56 uM incubated for 24 hrs by annexinV and propidium iodide staining based flow cytometry analysis (reference value: 0.42%); assay type: functional
K562 [31] = assay: Induction of cell cycle arrest in human K562 cells assessed as accumulation of cells at G0/G1 phase at 0.64 uM measured after 24 hrs by PI staining based flow cytometry analysis (reference value: 46.71%); assay type: functional
K562 [32] = assay: Induction of apoptosis in human K562 cells assessed as early apoptotic cells at 1.28 uM incubated for 24 hrs by annexinV and propidium iodide staining based flow cytometry analysis (reference value: 0.42%); assay type: functional
K562 [33] = assay: Induction of cell cycle arrest in human K562 cells assessed as accumulation of cells at G2/M phase at 1.25 uM measured after 24 hrs by PI staining based flow cytometry analysis (reference value: 29.44%); assay type: functional

For `CC(C)(C)n1cc(-c2ccnc(NCCCNS(=O)(=O)c3ccc(Cl)cc3)c2)c(-c2cccc(O)c2)n1`, the Activity (K562 [1]) was “inactive”, the Activity (K562 [2]) was 0.56% and the Activity (K562 [3]) was 1.94%. For the same compound, the Activity (K562 [4]) was 0.23%, the Activity [5] was 53% and the Activity [6] was 27%. It also gave an Activity (K562 [7]) of 0.37%, an Activity (K562 [8]) of 7.27% and an Activity (K562 [9]) of 30.99%. For the same compound, the Activity (K562 [10]) was 0.17%, the Activity (K562 [11]) was 0.07% and the Activity (K562 [12]) was 94.29%. For the same compound, the Activity (K562 [13]) was 4.89%, the Activity (K562 [14]) was 2.14% and the Activity (K562 [15]) was 0.48%. For the same compound, the Activity (K562 [16]) was “Active”.
For `O=C1c2ccccc2-c2n[nH]c3cccc1c23`, the Activity (K562 [17]) was 48.84%, the Activity (K562 [18]) was 1.5% and the Activity (K562 [19]) was 3.86%. For the same compound, the Activity (K562 [20]) was 16.61%, the Activity (K562 [21]) was 18.56% and the Activity (K562 [22]) was “Active”. It also gave an Activity (K562 [23]) of 34.01%, an Activity (K562 [24]) of 37.88% and an Activity (K562 [25]) of 4.71%. For the same compound, the Activity (K562 [26]) was “Active”, the Activity (K562 [27]) was 37.63% and the Activity (K562 [28]) was 28.15%. It also gave an Activity (K562 [29]) of 20.04%, an Activity (K562 [30]) of 1.05% and an Activity (K562 [31]) of 27.69%. It also gave an Activity (K562 [32]) of 0.66% and an Activity (K562 [33]) of 41.64%.
